Reference: BindingDB's records for doi:10.1021/jm00167a032 (Sankyo, 1990)

Molecular target: Arachidonate 5-lipoxygenase (Cavia porcellus)
Assay: Evaluated for inhibition of the formation and release of 5-lipoxygenase in guinea pig peritoneal PMNL

| IC50 [nM] | Structure (SMILES) |
| --- | --- |
| 520 | Cc1c(C)c2c(c(C)c1O)SC(CCC(N)=O)O2 (stereo unspecified) |
| 71 | Cc1c(C)c2c(c(C)c1O)SC(c1ccccc1)O2 (stereo unspecified) |
| 220 | CCCCCCCC1Oc2c(C)c(C)c(O)c(C)c2S1 (stereo unspecified) |

Further lines, the compound ahead of its results:

| Structure (SMILES) | IC50 [nM] |
| --- | --- |
| Cc1c(C)c2c(c(C)c1O)SCO2 | 290 |
| CCCCC1Oc2c(C)c(C)c(O)c(C)c2S1 (stereo unspecified) | 59 |
| CCCC1Oc2c(C)c(C)c(O)c(C)c2S1 (stereo unspecified) | 25 |
